From PMC2185538, “Purification of the full-length Xenopus interphotoreceptor retinoid binding protein and growth of diffraction-quality crystals” (Molecular Vision, 2007)

Molecular target: T1, Xenopus interphotoreceptor retinoid-binding protein (xIRBP) (Xenopus laevis, UniProt Q7SZI7)
T1 construct: gene rbp3; recombinant full-length four-module xIRBP (1197 amino acids; 131 kDa), free of its thioredoxin fusion partner; vector-derived N-terminal G-L-G-D-P
Test: fluorescence titration: retinol fluorescence enhancement (also tryptophan quenching, Kd […], and energy transfer, Kd […])

T1 sequence (Q7SZI7 23-1219): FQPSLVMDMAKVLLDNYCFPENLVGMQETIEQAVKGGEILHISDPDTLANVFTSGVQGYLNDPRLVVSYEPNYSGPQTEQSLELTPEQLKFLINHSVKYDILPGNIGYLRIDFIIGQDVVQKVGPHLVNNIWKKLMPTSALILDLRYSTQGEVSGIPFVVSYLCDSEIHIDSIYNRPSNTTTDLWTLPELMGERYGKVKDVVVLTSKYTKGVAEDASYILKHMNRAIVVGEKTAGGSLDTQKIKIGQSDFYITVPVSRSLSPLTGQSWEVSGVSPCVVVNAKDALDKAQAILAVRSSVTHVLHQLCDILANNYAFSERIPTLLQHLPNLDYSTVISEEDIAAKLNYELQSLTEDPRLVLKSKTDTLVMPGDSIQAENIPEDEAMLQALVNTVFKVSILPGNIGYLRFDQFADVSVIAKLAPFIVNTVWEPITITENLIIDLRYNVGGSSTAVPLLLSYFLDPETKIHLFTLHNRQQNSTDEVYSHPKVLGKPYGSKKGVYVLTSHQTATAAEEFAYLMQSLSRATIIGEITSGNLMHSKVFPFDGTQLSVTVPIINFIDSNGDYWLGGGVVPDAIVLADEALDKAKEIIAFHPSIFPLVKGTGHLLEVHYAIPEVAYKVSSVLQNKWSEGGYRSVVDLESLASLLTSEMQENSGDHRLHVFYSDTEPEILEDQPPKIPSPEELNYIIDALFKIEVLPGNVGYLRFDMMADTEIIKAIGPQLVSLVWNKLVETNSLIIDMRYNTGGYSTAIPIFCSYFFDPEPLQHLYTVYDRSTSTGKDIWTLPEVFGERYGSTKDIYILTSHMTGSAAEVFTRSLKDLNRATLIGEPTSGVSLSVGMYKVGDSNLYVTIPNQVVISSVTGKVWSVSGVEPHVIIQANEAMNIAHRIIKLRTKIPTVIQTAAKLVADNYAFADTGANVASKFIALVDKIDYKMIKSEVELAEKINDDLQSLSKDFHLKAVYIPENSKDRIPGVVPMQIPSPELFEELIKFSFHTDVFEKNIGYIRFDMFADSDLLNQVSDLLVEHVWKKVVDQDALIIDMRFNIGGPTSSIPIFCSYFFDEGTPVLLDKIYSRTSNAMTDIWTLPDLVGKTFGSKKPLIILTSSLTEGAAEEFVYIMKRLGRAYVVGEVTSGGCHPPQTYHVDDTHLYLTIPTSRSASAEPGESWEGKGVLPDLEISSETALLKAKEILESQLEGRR

CC1=C(/C=C/C(C)=C/C=C/C(C)=C/CO)C(C)(C)CCC1 [all-trans retinol]
Kd: 0.15 ± 0.03 µM
